Data: US8003759B2, “Protein kinase-inducible domains” (University of Delaware, priority 2006, dated 2011)
Entries after “also recorded” stand apart in the source; their conditions may differ. Like-named read-outs stand apart in the source and are kept apart here.

How the values were obtained:
[1] = Tb^3+ binding of pKID peptides by fluorescence titration (dissociation constant determination); conditions: for Kd: 5 mM HEPES (pH 7.8), 100 mM NaCl, read-out: Kd of peptide-Tb^3+ complex
Experimental: Fluorescence spectra were collected on a Photon Technology International fluorescence spectrometer model QM-3/2003 with a CW source and a Hamamatsu R928PMT. All experiments were conducted with an excitation wavelength of 280 nm. 6 nm excitation and emission slit widths were used unless otherwise indicated. All spectra were acquired at room temperature, collecting data every 1 nm with a scan rate of 1 nm per second. At least 3 independent binding titrations were conducted for each peptide. All spectra are uncorrected and have not been normalized, and only representative (median), non-averaged spectra are shown, unless otherwise indicated. All fluorescence experiments were conducted using a 495 nm highpass filter (model 495FG03-25 AM-53074; Andover Corporation, Andover, N.H.) on the emission monochromator.
Peptide solutions were prepared by dilution of stock solutions into 5 mM HEPES buffer (pH 7.8) with 100 mM NaCl. Spectra were acquired in 10 mm quartz fluorescence cells (Sterna). Tb^3+ titrations were conducted by dilution of a Tb^3+ solution into a peptide solution as described above. Each individual emission spectrum represents an independently prepared solution of peptide and metal. The Tb^3+ emission band at 544 nm was used to evaluate metal binding.
To determine dissociation constants for Tb^3+-peptide complexes, titrations were conducted in solutions of 5 mM HEPES (pH 7.8) and 100 mM NaCl, with 10 nm emission and excitation slit widths. All fluorescence experiments were conducted using a 495 nm highpass filter (model 495FG03-25 AM-53074; Andover Corporation, Andover, N.H.) on the emission monochromator. All TbCl3 solutions were standardized by titration with a standard solution of EDTA (1 mM) in the presence of xylenol orange indicator (10 μM) and sodium acetate buffer (pH 6.0, 10 mM). 500 μL of the 1 mM Tb^3+ stock solution was diluted to 1 mL to make a 0.5 mM solution and EDTA (1 mM) was added (approximately 500 μL) until the end point was reached (see FIGS. 11-13). The solutions were prepared as serial dilutions of Tb^3+, from 3.3 μM to 450 μM Tb^3+, and the fluorescence emission scan of each solution was acquired. Data points at the emission maximum of 544 nm were plotted against Tb^3+ concentration to calculate the final Kd. Data points indicate the average of at least three independent titrations. Error bars indicate standard error. The data were fit to equation (1) using a non-linear least squares fitting algorithm (KaleidaGraph version 3.6, Synergy Software), where Q fluorescence, Qo=fluorescence of the apopeptide, Qc=fluorescence of peptide-metal complex, Mt=total metal concentration, Kd=dissociation constant and Pt=total peptide concentration (10 μM). Dissociation constants in the presence of 2 mM Mg^2+ or 100 μM Ca^2+ were measured for pKID-PKA peptides to study the effect of these metals on Tb^3+-peptide complex formation.
Dissociation constants of the non-phosphorylated peptides were calculated by defining the maximum fluorescence of the non-phosphorylated peptide-Tb^3+ complex as equal to the maximum fluorescence of the phosphorylated peptide-Tb^3+ complex: Qc (non-phosphorylated peptide)=Qc (phosphorylated peptide), with Qc=the calculated fluorescence of the fully bonded phosphopeptide-Tb^3+ complex. Although the assumption of similar maximum fluorescence intensities of the Tb^3+ complexes of the non-phosphorylated and phosphorylated peptides may not be valid, it provides a measure of relative Tb^3+ fluorescence of the phosphorylated and non-phosphorylated peptides.

Protein Kinase A (PKA) [2] = target: T1, Protein Kinase A (PKA) (Mus musculus, UniProt P05132); experiment: Phosphorylation of pKID-PKA by protein kinase A in HeLa nuclear extract; format: biochemical; conditions: HeLa nuclear extract with added PKA, 3 h incubation
T1 construct: purchased New England Biolabs

[3] = test system: endogenous kinase present within the HeLa extracts; experiment: Phosphorylation of pKID-PKA in HeLa nuclear extract in the absence of added kinase; format: biochemical; conditions: no added kinase
Experimental: Phosphorylation of pKID-PKA in HeLa nuclear extract in the absence of added kinase was also examined. Reaction mixtures were prepared as described previously to a final volume of 25 μL, but protein kinase A was not added. After addition of ATP and incubation for the indicated times, the reaction mixtures (25 μL, 500 μM peptide) were diluted with 200 μL of a solution containing […] buffer (pH 7.8), 100 mM NaCl and 100 μM Tb^3+ and analyzed by fluorescence as described previously. pKID-PKA was phosphorylated by endogenous kinase present within the HeLa extracts to approximately 10% conversion as determined by fluorescence and HPLC (see FIG. 5, right).

Protein Kinase A (PKA) [4] = target: T1, Protein Kinase A (PKA); experiment: Phosphorylation of pKID peptides by protein kinase A (HPLC, fluorescence, ESI-MS); format: biochemical; conditions: 200 μM peptide, 2.5 units PKA, 35° C., 12 hrs
Experimental: Kinase specificity for protein kinase-inducible domain peptides was examined by incubation of protein kinase A with pKID-PKA, pKID-PKC and pKID-Erk. Experiments were conducted with 2.4 mM ATP (3 μL of freshly prepared 20 mM ATP), PKA buffer (3 μL of 10× buffer), and peptide (200 μM) with water in 25 μL final reaction volume. After incubation at 35° C. for 5 min, PKA enzyme solution (1 μL, 2.5 units) was added to start the reaction. After 12-14 hrs at 35° C., the reaction mixture was analyzed by fluorescence, HPLC and ESI-MS. The kinase reaction mixtures were analyzed by fluorescence by diluting the reaction mixture with 1 mL of a solution containing 5 mM HEPES buffer (pH 7.8), 100 mM NaCl, and 50 μM Tb^3+, and the resulting solution analyzed by fluorescence. Fluorescence experiments were conducted with 10 nm slit widths and a 495 nm highpass filter on the emission monochromator. Fluorescence data (FIG. 7) represent the average of four independent trials. Error bars indicate standard error.

[5] = Ho^3+ competition experiment (reduction of Tb^3+ luminescence); format: binding; conditions: 10 μM phosphorylated peptide, 10 μM Tb^3+, increasing Ho^3+
Experimental: Competition experiments were used to confirm site-specific lanthanide binding and to address whether pKID peptides are a general phosphorylation-dependent lanthanide-binding motif. In order to determine whether Tb^3+ binding is site-specific, competition experiments were performed with Ho^3+. Ho^3+ solutions were prepared from hydrates of the chloride salts in ultrapure water. The phosphorylated pKID-PKC peptide was tested for Ho^3+ binding by addition of aliquots of Ho^3+ to a solution containing 10 μM phosphorylated pKID-PKC and 10 μM Tb^3+. pKID-Tb^3+-Ho^3+ solutions were allowed to equilibrate for 2 minutes. Fluorescence experiments were conducted using a 495 nm highpass filter (model 495FG03-25 AM-53074; Andover Corporation, Andover, N.H.) on the emission monochromator and 8 nm slit widths.

Substance | Kd ([1]; 10 μM peptide) [µM] | Kd ([1]; + 2 mM Mg^2+) [µM] | phosphorylation by PKA (result in words), determined by HPLC (Protein Kinase A (PKA) [4]) | other results
Ac-DKNADGWIDAApSLK-NH2 (DKNADGWIDAASLK; HELM PEPTIDE1{[ac].D.K.N.A.D.G.W.I.D.A.A.[O=C([C@H](COP(=O)(O)O)N[*:1])[*:2]].L.K.[am]}$$$$V2.0; SMILES CC[C@H](C)[C@H](NC(=O)[C@H](Cc1c[nH]c2ccccc12)NC(=O)CNC(=O)[C@H](CC(=O)O)NC(=O)[C@H](C)NC(=O)[C@H](CC(N)=O)NC(=O)[C@H](CCCCN)NC(=O)[C@H](CC(=O)O)NC(C)=O)C(=O)N[C@@H](CC(=O)O)C(=O)N[C@@H](C)C(=O)N[C@@H](C)C(=O)N[C@@H](COP(=O)(O)O)C(=O)N[C@@H](CC(C)C)C(=O)N[C@@H](CCCCN)C(N)=O) [phosphorylated pKID-PKC] | 216 |  |  | 
Ac-DKNADGWIDAApSPA-NH2 (DKNADGWIDAASPA; HELM PEPTIDE1{[ac].D.K.N.A.D.G.W.I.D.A.A.[O=C([C@H](COP(=O)(O)O)N[*:1])[*:2]].P.A.[am]}$$$$V2.0; SMILES CC[C@H](C)[C@H](NC(=O)[C@H](Cc1c[nH]c2ccccc12)NC(=O)CNC(=O)[C@H](CC(=O)O)NC(=O)[C@H](C)NC(=O)[C@H](CC(N)=O)NC(=O)[C@H](CCCCN)NC(=O)[C@H](CC(=O)O)NC(C)=O)C(=O)N[C@@H](CC(=O)O)C(=O)N[C@@H](C)C(=O)N[C@@H](C)C(=O)N[C@@H](COP(=O)(O)O)C(=O)N1CCC[C@H]1C(=O)N[C@@H](C)C(N)=O) [phosphorylated pKID-Erk] | 124 |  |  | 
DKNADGWIDRASLA [non-phosphorylated pKID-PKA, Ac-DKNADGWIDRASLA-NH2, EF hand domain with Glu12 replaced by serine and a protein kinase A recognition domain] | > 5000 | > 5000 |  | Tb^3+ binding in the presence of Mg^2+ ([1]; 2 mM Mg^2+): not observed; phosphorylation conversion measured by HPLC (Protein Kinase A (PKA) [2]): 75%; phosphorylation conversion determined by fluorescence and HPLC [3]: approximately 10%; conversion to phosphorylated peptide by PKA, determined by HPLC (Protein Kinase A (PKA) [4]): > 95%
DKNADGWIDAASLK [non-phosphorylated pKID-PKC, Ac-DKNADGWIDAASLK-NH2, EF hand domain with Glu12 replaced by serine and a protein kinase C recognition domain] | > 6000 |  | no evidence of phosphorylation; also recorded: not phosphorylated | Ho^3+ binding observed via Tb^3+ luminescence [5]: loss of Tb^3+ luminescence
DKNADGWIDAASPA [non-phosphorylated pKID-Erk, Ac-DKNADGWIDAASPA-NH2, EF hand domain with Glu12 replaced by serine and an Erk recognition domain] | > 3000 |  | no evidence of phosphorylation; also recorded: not phosphorylated | 
Ac-DKNADGWIDRApSLA-NH2 (DKNADGWIDRASLA; HELM PEPTIDE1{[ac].D.K.N.A.D.G.W.I.D.R.A.[O=C([C@H](COP(=O)(O)O)N[*:1])[*:2]].L.A.[am]}$$$$V2.0; SMILES CC[C@H](C)[C@H](NC(=O)[C@H](Cc1c[nH]c2ccccc12)NC(=O)CNC(=O)[C@H](CC(=O)O)NC(=O)[C@H](C)NC(=O)[C@H](CC(N)=O)NC(=O)[C@H](CCCCN)NC(=O)[C@H](CC(=O)O)NC(C)=O)C(=O)N[C@@H](CC(=O)O)C(=O)N[C@@H](CCCNC(=N)N)C(=O)N[C@@H](C)C(=O)N[C@@H](COP(=O)(O)O)C(=O)N[C@@H](CC(C)C)C(=O)N[C@@H](C)C(N)=O) [phosphorylated pKID-PKA] | 220 | 174 |  | change of dissociation constant of phosphopeptide-Tb^3+ complex in the presence of Ca^2+ ([1]; 100 μM Ca^2+): did not significantly change; Kd ([1]; + 100 μM Ca^2+): 228 µM
